Data as given in PubChem BioAssay AID1963982 (Molecular Pharmacology Branch, DTP, NCI, 2024).

Test system: 313798-341-R-J2-PDC spheroids, viability
Assay: Anticancer human tumor 313798-341-R-J2-PDC patient-derived cervical squamous cell carcinoma cell line growth inhibition [PI3K]
Details: spheroids with HUVEC and MSC; for IC50: curve of first compound; for viability, T/C: stronger effect = lower value
Method in brief: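 Spheroid viability read-out. Co-cultures contained the tumor line plus HUVEC and human MSCs. Each agent was paired with a PI3K inhibitor (inavolisib, alpelisib, duvelisib, copanlisib) across half-log dilutions starting at clinical Cmax, or at 10 microM when Cmax was unknown.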
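Note: spheroids exposed to compounds for seven days.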
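Throughout, for viability, T/C: 100% = DMSO vehicle control viability.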

For CCCS(=O)(=O)Nc1ccc(F)c(C(=O)c2c[nH]c3ncc(-c4ccc(Cl)cc4)cc23)c1F + COc1c(OCCCN2CCOCC2)ccc2c3n(c(=NC(=O)c4cnc(N)nc4)nc12)CCN3, the IC50 (second compound 0.00316 µM) was 6.1 µM, the IC50 (second compound 0.01 µM) was 5.99 µM and the IC50 (second compound 0.0316 µM) was 5.16 µM. The IC50 (second compound 0.1 µM) was 0.11 µM, the IC50 (second compound 0.316 µM) was less than 0.0316 µM and the IC50 (second compound 1 µM) was less than 0.0316 µM. For the same compound, the viability, T/C (second compound 0.00316 µM, first compound 0.0316 µM) was 109%, the viability, T/C (second compound 0.00316 µM, first compound 0.1 µM) was 98.6% and the viability, T/C (second compound 0.00316 µM, first compound 0.316 µM) was 99.6%. For the same compound, the viability, T/C (second compound 0.00316 µM, first compound 1 µM) was 92.3%, the viability, T/C (second compound 0.00316 µM, first compound 3.16 µM) was 95.5% and the viability, T/C (second compound 0.00316 µM, first compound 10 µM) was 15.7%. For the same compound, the viability, T/C (second compound 0.01 µM, first compound 0.0316 µM) was 89.1%, the viability, T/C (second compound 0.01 µM, first compound 0.1 µM) was 96.2% and the viability, T/C (second compound 0.01 µM, first compound 0.316 µM) was 103%. The viability, T/C (second compound 0.01 µM, first compound 1 µM) was 98.6%, the viability, T/C (second compound 0.01 µM, first compound 3.16 µM) was 97.1% and the viability, T/C (second compound 0.01 µM, first compound 10 µM) was 12.5%. The viability, T/C (second compound 0.0316 µM, first compound 0.0316 µM) was 68.7%, the viability, T/C (second compound 0.0316 µM, first compound 0.1 µM) was 94.1% and the viability, T/C (second compound 0.0316 µM, first compound 0.316 µM) was 86.5%. It also gave a viability, T/C (second compound 0.0316 µM, first compound 1 µM) of 83.8%, a viability, T/C (second compound 0.0316 µM, first compound 3.16 µM) of 78.1% and a viability, T/C (second compound 0.0316 µM, first compound 10 µM) of 12%. The viability, T/C (second compound 0.1 µM, first compound 0.0316 µM) was 47.9%, the viability, T/C (second compound 0.1 µM, first compound 0.1 µM) was 54.2% and the viability, T/C (second compound 0.1 µM, first compound 0.316 µM) was 48.4%. For the same compound, the viability, T/C (second compound 0.1 µM, first compound 1 µM) was 41.4%, the viability, T/C (second compound 0.1 µM, first compound 3.16 µM) was 33.9% and the viability, T/C (second compound 0.1 µM, first compound 10 µM) was 15.7%. The viability, T/C (second compound 0.316 µM, first compound 0.0316 µM) was 16.7%, the viability, T/C (second compound 0.316 µM, first compound 0.1 µM) was 18.7% and the viability, T/C (second compound 0.316 µM, first compound 0.316 µM) was 19.1%. The viability, T/C (second compound 0.316 µM, first compound 1 µM) was 20.5%, the viability, T/C (second compound 0.316 µM, first compound 3.16 µM) was 22.4% and the viability, T/C (second compound 0.316 µM, first compound 10 µM) was 12.7%. For the same compound, the viability, T/C (second compound 1 µM, first compound 0.0316 µM) was 13.2%, the viability, T/C (second compound 1 µM, first compound 0.1 µM) was 12.4% and the viability, T/C (second compound 1 µM, first compound 0.316 µM) was 14.6%. For the same compound, the viability, T/C (second compound 1 µM, first compound 1 µM) was 14.3%, the viability, T/C (second compound 1 µM, first compound 3.16 µM) was 19.8% and the viability, T/C (second compound 1 µM, first compound 10 µM) was 9.24%.
